Data taken from publication PMC10296238, “A Magnetic-Bead-Based Immunoassay with a Newly Developed Monoclonal Antibody for Rapid and Highly Sensitive Detection of Forchlorfenuron” (Biosensors, 2023).
Converted amounts (≈) assume the structure as drawn.

Legend:
[1] = system: anti-CPPU mAb 14G1; experiment: conventional indirect competitive ELISA (icELISA) based on mAb 14G1; type: binding, mouse; settings: for icELISA CR: CR = IC50 of CPPU/IC50 of analyte × 100%
Method: A conventional icELISA was developed for CPPU detection as follows: 0.5 μg/mL CPPU–BSA was dropped into the 96-well microplate (100 μL/well) and incubated overnight at 4 °C. The plates were blocked at 37 °C with 5% skim milk in PBST (PBS containing 0.05% Tween 20) for 1 h. After washing the plate with PBST three times, 50 μL of mAb 14G1 and 50 μL of sequentially diluted CPPU standard solution were added. The plate was incubated for 1 h at 37 °C, washed three times, and 100 μL/well of goat anti-mouse lgG-HRP solution was added for another 1 h of incubation. After washing six times, 100 μL/well of TMB substrate was added to the plate and reacted for 15 min. Finally, 2 M H2SO4 (50 μL/well) was added into the plate to stop the reaction, and the OD450 value was read with a microplate reader.
(§1) The cross-reactivities (CRs) of the developed MB-based assay and icELISA with compounds structurally related to CPPU were used to evaluate the selectivity of the assays. The CR value of each compound was calculated as follows: CR (%) = (IC50 of CPPU/IC50 of analyte) × 100%.
The experimental conditions of conventional icELISA were optimized. The evaluation criteria were the 50% inhibition concentration (IC50; representing the sensitivity) and maximum absorbance (ODmax) of the negative control. The working concentrations of the CPPU–BSA conjugate and mAb 14G1 were primarily optimized by a checkerboard titration. The concentration of CPPU–BSA coated in the plate was diluted from 2.0 μg/mL to 0.25 μg /mL, and anti-CPPU mAb 14G1 was diluted in a series of two-fold dilutions from 1:2000. […] After optimization, the concentrations of CPPU–BSA and mAb 14G1 were 0.5 μg/mL and 0.016 μg/mL for icELISA (Figure S2a). Then, the process parameters of icELISA were optimized through single-factor experiments. The influence of blocking reagents commonly used in ELISA systems, OVA, skim milk, and BSA, were evaluated and compared for their effectiveness in reducing nonspecific binding. Finally, 5% skim milk was selected, which gave a minimum IC50 value (Figure S2b). CPPU is a lipophilic, small organic compound, and methanol has been reported to be a more acceptable co-solvent for CPPU during the immunochemical reaction. The effect of methanol concentration on immunoassay performance was assessed. […] The ionic strength of 136 mM, which provided the lowest IC50 value, was selected. The pH value is one of the key factors influencing the characteristics of the assay. From Figure S2e, the value of pH 7.4 was selected as the optimum for the assay based on the favorable IC50 value. Under the optimal assay conditions, an indirect competitive ELISA standard curve was established (Figure 3). […] Moreover, the assay has a linear range (IC20–IC80) of 0.005–0.231 ng/mL.

[2] = system: anti-CPPU mAb 14G1–HRP; experiment: direct competitive magnetic-bead (MB)-based assay with mAb 14G1–HRP; type: binding, mouse; settings: for MB-Based Assay CR: CR = IC50 of CPPU/IC50 of analyte × 100%
Method: A direct competitive MB-based assay was developed as follows. First, the 96-well microtiter plate was pre-sealed with 5% skim milk at 37 °C for 1 h. After washing with PBST, MB–CPPU–BSA (10 μg/μL, 10 μL per well) was added to the 96-well plate. Subsequently, 50 μL of serially diluted CPPU standards and 50 μL of diluted mAb–HRP (1:3200) were mixed into the wells. The plate was shaken well and incubated at 37 °C for 20 min and then placed on a magnetic base to precipitate the MB. Then, the supernatant was discarded, and the plate was washed three times with PBST. After washing, TMB substrate (100 μL per well) was added and incubated for 15 min at 37 °C. The reaction was stopped with 2 M H2SO4, and the absorbance was measured at a wavelength of 450 nm.
The reaction parameters greatly influence assay sensitivity. Therefore, the experimental parameters including concentrations of MB–CPPU–BSA and mAb–HRP, ionic strength, pH value, and organic solvent content in buffer were investigated to improve the sensitivity of the MB-based assay. After optimization, the standard curve for the MB-based assay was generated by plotting the B/B0 (B and B0 were defined as the OD450 in the presence and absence of CPPU, respectively) against the logarithm of CPPU concentration. The 50% inhibitory concentration value (IC50) calculated from the curves was used to evaluate assay sensitivity.
as §1
To obtain better analytical performance of the MB-based assay, the reaction conditions were investigated. First of all, the working concentrations of MB–CPPU–BSA and mAb 14G1–HRP were determined by checkerboard titration as 0.1 mg/mL and 1:6400 dilution, respectively (Table S1). Then, the influence of other parameters on the assay was also optimized, in which the IC50 value was used as the main criterion. The effects of different ionic strengths and different pH values of the PBS solution on antigen–antibody binding in the MB-based assay were evaluated (Figure S4a,b). […] The optimal methanol concentration was selected to be 5% for the lower IC50. To shorten the detection duration, the incubation time for the competitive reaction between MB–CPPU–BSA and free-CPPU for binding to mAb–HRP tracer was optimized in sequence. […] Shorter incubation times may result in insufficient antigen–antibody binding, while longer incubation times not only further increased the maximum intensity but also led to higher background signals from non-specific binding. Therefore, incubation was stopped after 20 min, and beads were washed to remove unbound antibody.

[3] = system: anti-CPPU mAb 14G1–HRP; experiment: as above; type: binding, mouse
[4] = system: mAb (s5#34); settings: cited from earlier work
[5] = system: mAb, P6#42; settings: cited from earlier work
[6] = system: mAb; settings: cited from earlier work
[7] = system: mAb against CPPU; settings: cited from earlier work
[8] = system: pAb; design: method as in earlier work; settings: cited from earlier work
[9] = system: rats; settings: cited from earlier work
[10] = system: zebrafish; settings: cited from earlier work

For `Cc1ccc(NC(=O)N(C)C)cc1Cl` [Chlorotoluron], the “icELISA CR” value [1] was <1.0%, the “icELISA IC50” value ([1]; optimal assay conditions) was >2.5 ng/mL and the “MB-Based Assay CR” value [2] was <0.6%. The “MB-Based Assay IC50” value ([2]; optimized conditions) was >1.0 ng/mL.

With `CN(C)C(=O)Nc1ccc(Cl)c(Cl)c1` [Diuron] the “icELISA CR” value [1] was <1.0%, the “icELISA IC50” value ([1]; optimal assay conditions) was >2.5 ng/mL and the “MB-Based Assay CR” value [2] was <0.6%. For the same molecule, the “MB-Based Assay IC50” value ([2]; optimized conditions) was >1.0 ng/mL.

With `CON(C)C(=O)Nc1ccc(Cl)c(Cl)c1` [Linuron] the “icELISA CR” value [1] was <1.0%, the “icELISA IC50” value ([1]; optimal assay conditions) was >2.5 ng/mL and the “MB-Based Assay CR” value [2] was <0.6%. For the same molecule, the “MB-Based Assay IC50” value ([2]; optimized conditions) was >1.0 ng/mL.

With `O=C(Nc1ccccc1)Nc1ccnc(Cl)c1` [Forchlorfenuron (CPPU), Forchlorfenuron] the “icELISA IC50 during optimization” value ([1]; 5% methanol, Figure S2c) was 0.0372 ng/mL, the “icELISA CR” value [1] was 100% and the “icELISA IC50” value ([1]; optimal assay conditions) was 0.0253 ng/mL. For the same molecule, the “icELISA limit of detection (LOD, IC10)” value ([1]; optimal assay conditions) was 0.002 ng/mL, the “icELISA linear range (IC20–IC80)” value ([1]; optimal assay conditions) was 0.005 to 0.231 ng/mL and the “MB-Based Assay CR” value [2] was 100%. For the same molecule, the “estimated LOD in grape, MB-based assay” value ([2]; grape, considering dilution factor of the sample (100-fold)) was 0.0168 µg/kg, the “estimated LOD in kiwifruit, MB-based assay” value ([2]; kiwifruit, considering dilution factor of the sample (100-fold)) was 0.0191 µg/kg and the “MB-Based Assay IC50” value ([2]; optimized conditions) was 0.0061 ng/mL. The “MB-based assay LOD” value ([2]; optimized conditions) was 0.0004 ng/mL, the “MB-based assay linear detection range (IC20–IC80)” value ([2]; optimized conditions) was 0.0016 to 0.0259 ng/mL and the “IC50, MB-based assay optimization” value ([3]; mAb-HRP 1:400, MB-CPPU-BSA 0.0125 μg/μL) was 0.0315 ng/mL (≈ 0.127 nM). For the same molecule, the “IC50, MB-based assay optimization” value ([3]; mAb-HRP 1:800, MB-CPPU-BSA 0.025 μg/μL) was 0.0147 ng/mL (≈ 0.0593 nM), the “IC50, MB-based assay optimization” value ([3]; mAb-HRP 1:1600, MB-CPPU-BSA 0.05 μg/μL) was 0.0139 ng/mL (≈ 0.0561 nM) and the “IC50, MB-based assay optimization” value ([3]; mAb-HRP 1:3200, MB-CPPU-BSA 0.10 μg/μL) was 0.0132 ng/mL (≈ 0.0533 nM). For the same molecule, the “IC50, MB-based assay optimization” value ([3]; mAb-HRP 1:6400, MB-CPPU-BSA 0.20 μg/μL) was 0.0140 ng/mL (≈ 0.0565 nM), the “dcELISA (mAb) LOD” value [4] was 0.01 ng/mL and the “dcELISA IC50” value ([4]; in buffer) was 0.063 ng/mL. The “LFIA IC50” value [5] was 0.286 ng/mL, the “LFIA LOD” value [5] was 0.045 ng/mL and the LFIA linear range [5] was 0.089 to 0.916 ng/mL. For the same molecule, the “icELISA (mAb) LOD” value [6] was 0.013 ng/mL, the “icELISA (mAb) linear range” value [6] was 0.022 to 0.156 ng/mL and the “icELISA IC50” value [7] was 1.04 ng/mL. The “icELISA LOD” value [7] was 0.16 ng/mL, the icELISA linear range [7] was 0.31 to 3.43 ng/mL and the “dcELISA (pAb) IC50” value [8] was 0.077 ng/mL. The “dcELISA (pAb) LOD” value [8] was 0.012 ng/mL, the “dcELISA (pAb) linear range” value [8] was 0.025-0.276 ng/mL and the “toxic effects in rats” value [9] was “potential adverse effects on the ovaries and on the production of steroid hormones”. The “toxic effects in zebrafish” value [10] was “cardiac morphology deformation, cardiac contractile dysfunction, and erythrocyte reduction”.

In the case of `Clc1ccccc1-c1nnc(-c2ccccc2Cl)nn1` [Clofentezine], the “icELISA CR” value [1] is reported as <1.0%, the “icELISA IC50” value ([1]; optimal assay conditions) is reported as >2.5 ng/mL and the “MB-Based Assay CR” value [2] is reported as <0.6%. The “MB-Based Assay IC50” value ([2]; optimized conditions) was >1.0 ng/mL.

In the case of `O=C(Nc1ccccc1)Nc1cnns1` [Thidiazuron], the “icELISA CR” value [1] is reported as <1.0%, the “icELISA CR” value ([1]; listed as thidiazuron) is reported as “negligible cross-reaction” and the “icELISA IC50” value ([1]; optimal assay conditions) is reported as >2.5 ng/mL. For the same molecule, the “MB-Based Assay CR” value [2] was <0.6%, the “MB-Based Assay CR” value ([2]; listed as thidiazuron) was “negligible cross-reaction” and the “MB-Based Assay IC50” value ([2]; optimized conditions) was >1.0 ng/mL. For the same molecule, the “dcELISA cross-reactivity (CR)” value ([4]; mAb s5#34) was 71%.
